Key:
Chlorella sp. ATCC 7516 = experiment: Algal efficacy testing of dry paint films (modified ASTM 5589, 6-well plates); assay type: cell-based; settings: 3 weeks; for % inhibition: at the listed total conc, versus blank sample; for Total conc (lowest concentration passing, pass level ≧75% inhibition): total biocide in acrylic/silicone paint, dry film on filter paper
Method: (§1) Slurries containing 33% antimicrobial active ingredient (chlorotoluron) and 45% antimicrobial ingredient terbutryn were post added to a white, acrylic/silicone based outdoor paint free of biocides to give a total active ingredient concentration of 10000 and 1000 ppm respectively. These paints were then diluted with an antimicrobial free acrylic/silicone based paint and mixed to prepare targeted concentrations of antimicrobial compounds for the testing. The total biocides concentrations tested were 125, 250, 500, 1000, 2000 and 5000 ppm. After biocides addition or dilution, the paints were mixed 90 seconds with the horse power shaker (AXEL 75M3372/Agitateur SO-10MI) until uniformity was achieved. Paints containing different antimicrobial compounds at the same levels were mixed together in order to obtain the desired ratio of antimicrobial compounds. After one day, the paints were applied to Schleicher & Schuell filter paper at 280 μm wet film thickness and dried for 3 days at room temperature avoiding direct exposure to sunlight. Square discs (1.6 cm×1.6 cm) were cut out from each panel and were used as the substrate for algal efficacy tests. This sample size allowed for an agar border when the sample disc was placed into the well of the test plate.
(§2) Algal efficacy was tested according to modified ASTM 5589 which is a standard accelerated test method for determining resistance of various coatings (including paints) to algal defacement. To accommodate for high-throughput screening, this method was scaled down from petri dishes to 6-well plates. Bold Modified Basal Freshwater Nutrient Solution was used as growth medium. A single coated filter paper coupon was placed with a pair of sterile forceps at the center of the agar plug (on top) with the painted surface facing upwards. Algal inoculums were prepared by mixing equal concentrations (1×10^6 cfu/ml) and equal volumes of exponentially growing algae cultures.
(§3) Each well that contains a tested coupon was inoculated with 1750 μl of algal suspensions (1×10^6 cfu/ml) making sure that the whole surface (paint film as well as the agar surrounding it) was evenly covered. The plates were incubated at room temp (21° C.-25° C.) with cyclic exposure to light and dark phases, for a period of three weeks. The total area inhibited was evaluated at the end of each week according to percent area covered in 5% increments
(§4) At the end of the three week incubation period, the samples were scored for percent inhibition regarding color intensity compared to the blank sample.
(§5) The SI is calculated based on F. C. Kull et.
(§6) SI value of <1 in the formula indicates a synergism of the blended biocides exists.
(§7) The minimal targeted inhibition was set at 75%, meaning a coupon with at least 75% algal growth inhibition was considered as a pass.

[1] = test system: Stichococcus bacillaris SAG 379-1a / CCAP 379/1a; experiment: as above; assay type: cell-based; settings: 3 weeks; for % inhibition: at the listed total conc, versus blank sample; for Total conc (lowest concentration passing, pass level ≧75% inhibition): total biocide in acrylic/silicone paint, dry film on filter paper
Method: as §1, §2, §3, §4, §5, §6, §7

| Structure (SMILES) | % inhibition (Chlorella sp. ATCC 7516) | Total conc (lowest concentration passing, pass level ≧75% inhibition) (Chlorella sp. ATCC 7516) | % inhibition [1] | Total conc (lowest concentration passing, pass level ≧75% inhibition) [1] |
| --- | --- | --- | --- | --- |
| Cc1ccc(NC(=O)N(C)C)cc1Cl [Chlorotoluron, N′-(3-chloro-4-methylphenyl)-N,N-dimethylurea] | 100% | 1000 ppm | 90% | 500 ppm |
| CCNc1nc(NC(C)(C)C)nc(SC)n1 [Terbutryn, N^2-tert-butyl-N^4-ethyl-6-methylthio-1,3,5-triazine-2,4-diamine] | 90% | 500 ppm | 80% | 2000 ppm |
